Reference: the supplement of paper PMC10307832

Columns and labels:
[1] = compound: COC1=CC=C(C=C1)CN2C=CC3=C2C=C(C=C3)C(=O)NO + CC(=O)Nc1cccc(-n2c(=O)n(C3CC3)c(=O)c3c(Nc4ccc(I)cc4F)n(C)c(=O)c(C)c32)c1 [Trametinib] (partner 0.02 µM); assay: relative viability (nuclei count vs DMSO), 5 days (fraction); higher = more cells survive
Method in brief: (§1)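 Relative viability was taken as the ratio of nuclei in treated wells to nuclei in vehicle wells. Lung cancer cell lines in 1536-well plates received compounds by pin tool one day after seeding, either one drug alone or a fixed anchor-drug dose plus five library-drug doses (not always all listed) in √10 steps. Nuclei were counted on 4× images after 5 days of treatment, and values are medians of duplicate plates.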

Veliparib + Dasatinib = compound: C[C@]1(c2nc3c(C(N)=O)cccc3[nH]2)CCCN1 [Veliparib] + Cc1nc(Nc2ncc(C(=O)Nc3c(C)cccc3Cl)s2)cc(N2CCN(CCO)CC2)n1 [Dasatinib] (partner 0.075 µM); assay: as above
Method in brief: as §1

Cell Line	relative viability ([1]; first compound 0.08 µM)	relative viability ([1]; first compound 0.253 µM)	relative viability ([1]; first compound 0.8 µM)	relative viability ([1]; first compound 2.53 µM)	relative viability ([1]; first compound 8 µM)	relative viability (Veliparib + Dasatinib; first compound 0.02 µM)	relative viability (Veliparib + Dasatinib; first compound 0.06325 µM)	relative viability (Veliparib + Dasatinib; first compound 0.2 µM)	relative viability (Veliparib + Dasatinib; first compound 0.6325 µM)	relative viability (Veliparib + Dasatinib; first compound 2 µM)
NCI-H2087	0.163	0.204	0.232	0.181	0.154	0.738	0.731	0.886	0.788	0.942
NCI-H441	0.353	0.491	0.61	0.422	0.449	0.502	0.572	0.591	0.558	0.691
NCI-H3122	0.276	0.13	0.225	0.217	0.222	0.674	0.792	0.84	0.766	0.572
